Results on 28 compounds are retold here after patent US20070208040A1, “A2A ADENOSINE RECEPTOR ANTAGONISTS” (priority 2006, published 2007).

This experiment has as its target A2A adenosine receptor (UniProt P29274). The experiment in a line: A2A radioligand binding assay (displacement of 3H-MSX-2). The arrangement: species or system human. Conditions: displacement of 2 nM 3H-MSX-2 from 15 ug A2A membrane, 23° C., 2 hours. The source says: A tritiated adenosine A2A antagonist, 3-(3-hydroxypropyl)-7-methyl-8-(m-methoxystyryl)-1-propargylxanthine, (3H-MSX-2, specific activity: 80 Ci/mmol), was purchased from American Radiolabeled Chemicals, Inc (St. Louis, Mo.). A tritiated adenosine A1 antagonist, 1,3-Dipropyl-8-cyclopentylxanthine ([^3H]DPCPX, specific activity: 120 Ci/mmol) was purchased from Perkin Elmer (Boston, Mass.). A tritiated adenosine A2a antagonist, 4-(2-[7-amino-2-(2-furyl)[1,2,4]triazolo[2,3-a][1,3,5]triazin-5-ylamino]ethyl)phenol ([^3H]ZM241385 specific activity: 27.4 Ci/mmol) was purchased from American Radiolabeled Chemicals, Inc (St. Louis, Mo.). Adenosine Deaminase (ADA) was purchased from Roche Molecular Biochemicals (Nutley, N.J.). GTP was purchased from Sigma. Concentrated stock solution (10 mM) of compounds was dissolved in dimethylsulfoxide (DMSO), stored at −20° C., and diluted in Tris-EDTA buffer (50 mM Tris and 1 mM EDTA, 10 mM MgCl2, pH 7.4) for use in experiments. The final content of dimethylsulfoxide in Tris-EDTA buffer during experiments was not more than 1%. Male Sprague Dawley rats, weighted 250-400 g, 8-10 weeks old, were purchased from Charles River Labs (Wilmington, Mass.).
HEK293 (Human Embryonic Kidney 293) cells stably expressing human A2A adenosine receptor or human A2B adenosine receptor were maintained in DMEM supplemented with 10% fetal bovine serum, 2 mM L-glutamine, 100 IU/ml penicillin, 50 μg/ml streptomycin and 2 μg/ml puromycin. CHO (Chinese Hamster Ovary) cells stably expressing human A1 adenosine receptor or human A3 adenosine receptor were maintained in F12K medium supplemented with 10% fetal bovine serum, 2 mM L-glutamine, 100 IU penicillin, 50 μg streptomycin and 8 μg/ml puromycin. PC12 (rat pheochromocytoma) cells were cultured in F12K medium supplemented with 10% horse serum and 2.5% fetal bovine serum, 2 mM L-glutamine, 100 IU/ml penicillin, and 50 μg/ml streptomycin. All cells were maintained at 37° C. in a humidified 5% CO2/95% air incubator and recultivated 2 times per week.
Cultured cells in 150 mm^2 dishes were washed once with PBS, detached by scrapping, collected with buffer A (10 mM HEPES, 10 mM EDTA, pH 7.4) containing protease inhibitor cocktail. Cells were then homogenized by a handheld homogenizer at a speed of 4.5 for 1 min. The homogenate was centrifuged by a Beckman ultracentrifuge at a speed of 29,000 × g for 15 min. The pellets were resuspended in buffer HE (10 mM HEPES, 1 mM EDTA, pH 7.4, with protease inhibitor cocktail), centrifuged again at 29,000 × g for 15 min. The crude membrane was resuspended using buffer HE, and protein concentration was measured by the method of Lowery with BSA as standard. Similar procedures were used for membrane preparation for fresh rat tissues. All experimental procedures were done at 4° C. Membranes were aliquot and kept at −80° C.
The binding assays utilized 15 ug of A2A membrane (human recombinant A2A membrane, rat striatal membrane, or PC 12 cell membrane) that had been treated with adenosine deaminase and 50 mM Tris-EDTA buffer (pH=7.4) followed by mixing 2 μL of serially diluted DMSO stock solution of the compounds of this invention at concentrations ranging from 10 μM to 0.1 nM or the control received 2 μL of DMSO alone, then the tritiated antagonist 3-(3-hydroxypropyl)-7-methyl-8-(m-methoxystyryl)-1-propargylxanthine (^3H-MSX-2) in Tris-EDTA buffer (50 mM Tris, 1 mM EDTA, 10 mM MgCl2, pH of 7.4) was added to achieve a final concentration of 2 nM. After incubation at 23° C. for 2 hours, the solutions were filtered using a membrane harvester with multiple washing of the membranes (3×). The filter plates were counted in scintillation cocktail affording the amount of displacement ^3H-MSX-2 by the competitive binding compositions of this invention. Radioligand binding data was analyzed using GraphPad Prism version 4.0 (San Diego, Calif.). […]

For the compound `Cc1c(C2=N[C@@H](C)CO2)sc2[nH]c(=O)n(CC(C)C)c(=O)c12` [LI, 6-((4S)-4-methyl(1,3-oxazolin-2-yl))-5-methyl-3-(2-methylpropyl)-1,3-dihydrothiopheno[2,3-d]pyrimidine-2,4-dione], the affinity corresponds to a Ki of 48 nM.

Compound `CCn1c(=O)[nH]c2sc(-c3ccoc3)c(C)c2c1=O` [II, 3-ethyl-6-(3-furyl)-5-methyl-1,3-dihydrothiopheno[2,3-d]pyrimidine-2,4-dione] had an inhibition constant Ki of 88 nM.

The compound `CCn1c(=O)[nH]c2sc(-c3cc(C)cs3)c(C)c2c1=O` [XXXI, 3-ethyl-5-methyl-6-(4-methyl(2-thienyl))-1,3-dihydrothiopheno[2,3-d]pyrimidine-2,4-dione] displayed a Ki of 150 nM.

For `CCn1c(=O)[nH]c2scc(C)c2c1=O` [X, 3-ethyl-5-methyl-1,3-dihydrothiopheno[2,3-d]pyrimidine-2,4-dione], the affinity corresponds to a Ki of 397 nM.

Turning to `C#CCn1c(=O)[nH]c2scc(C)c2c1=O` [IX, 5-methyl-3-prop-2-ynyl-1,3-dihydrothiopheno[2,3-d]pyrimidine-2,4-dione], the Ki was found to be 365 nM.

Compound `CCCn1c(=O)[nH]c2sc(C(=O)O)c(C)c2c1=O` [XLI, 5-methyl-2,4-dioxo-3-propyl-1,3-dihydrothiopheno[2,3-d]pyrimidine-6-carboxylic acid] showed an inhibition constant (Ki) of 569 nM.

Consider `Cc1c(C2=NC[C@@H](C)O2)sc2[nH]c(=O)n(CC(C)C)c(=O)c12` [LVII, 6-((5R)-5-methyl(1,3-oxazolin-2-yl))-5-methyl-3-(2-methylpropyl)-1,3-dihydrothiopheno[2,3-d]pyrimidine-2,4-dione], for which the inhibition constant Ki was found to be 239 nM.

The compound `CCn1c(=O)[nH]c2sc(-c3ccccn3)c(C)c2c1=O` [XXXVIII, 3-ethyl-5-methyl-6-(2-pyridyl)-1,3-dihydrothiopheno[2,3-d]pyrimidine-2,4-dione] returned a Ki of 120 nM.

Compound `CCn1c(=O)[nH]c2scc(-c3ccco3)c2c1=O` [VI, 3-ethyl-5-(2-furyl)-1,3-dihydrothiopheno[2,3-d]pyrimidine-2,4-dione] gave a Ki of 137 nM.

Turning to `C#CCn1c(=O)[nH]c2sc(C(=O)OCC)c(C)c2c1=O` [XXV, ethyl 5-methyl-2,4-dioxo-3-prop-2-ynyl-1,3-dihydrothiopheno[2,3-d]pyrimidine-6-carboxylate], the inhibition constant Ki came out at 300 nM.

For `Cc1c(-c2cccs2)sc2[nH]c(=O)n(C)c(=O)c12` [XXXIII, 3,5-dimethyl-6-(2-thienyl)-1,3-dihydrothiopheno[2,3-d]pyrimidine-2,4-dione], the Ki was 150 nM.

Compound `Cc1c(-c2ccco2)sc2[nH]c(=O)n(CC(C)C)c(=O)c12` [Example I, 6-(2-furyl)-5-methyl-3-(2-methylpropyl)-1,3-dihydrothiopheno[2,3-d]pyrimidine-2,4-dione] showed a Ki of 76 nM.

`CCn1c(=O)[nH]c2sc(C)c(C)c2c1=O` [XVI, 3-ethyl-5,6-dimethyl-1,3-dihydrothiopheno[2,3-d]pyrimidine-2,4-dione]: the affinity, expressed as Ki, was 699 nM.

Consider `CCn1c(=O)c2c(C)c(-c3cc(C)cs3)sc2n(C)c1=O` [XLVII, 3-ethyl-1,5-dimethyl-6-(4-methyl(2-thienyl))-1,3-dihydrothiopheno[2,3-d]pyrimidine-2,4-dione], for which the Ki amounted to 524 nM.

`CCn1c(=O)c2c(C)c(-c3nccs3)sc2n(C)c1=O` [XLVIII, 3-ethyl-1,5-dimethyl-6-(1,3-thiazol-2-yl)-1,3-dihydrothiopheno[2,3-d]pyrimidine-2,4-dione] had an inhibition constant Ki of 199 nM.

In turn, `CCn1c(=O)[nH]c2sc(-c3cnn(Cc4ccccc4)c3)c(C)c2c1=O` [XVIII, 3-ethyl-5-methyl-6-[1-benzylpyrazol-4-yl]-1,3-dihydrothiopheno[2,3-d]pyrimidine-2,4-dione] had an inhibitory constant (Ki) of 752 nM.

Compound `Cc1csc2[nH]c(=O)n(CC(C)C)c(=O)c12` [XIX, 5-methyl-3-(2-methylpropyl)-1,3-dihydrothiopheno[2,3-d]pyrimidine-2,4-dione] displayed a Ki of 780 nM.

In turn, `CCn1c(=O)c2c(C)c(-c3ccc[nH]3)sc2n(C)c1=O` [XLIX, 3-ethyl-1,5-dimethyl-6-pyrrol-2-yl-1,3-dihydrothiopheno[2,3-d]pyrimidine-2,4-dione] had an inhibition constant Ki of 488 nM.

For `CCn1c(=O)[nH]c2sc(-c3nc(Cc4ccccc4)no3)c(C)c2c1=O` [XX, 3-ethyl-5-methyl-6-[3-benzyl(1,2,4-oxadiazol-5-yl)]-1,3-dihydrothiopheno[2,3-d]pyrimidine-2,4-dione], the affinity corresponds to a Ki of 805 nM.

Take `Cc1c(-c2ncco2)sc2c1c(=O)n(CC(C)C)c(=O)n2C` [XL, 1,5-dimethyl-3-(2-methylpropyl)-6-(1,3-oxazol-2-yl)-1,3-dihydrothiopheno[2,3-d]pyrimidine-2,4-dione]: the Ki was determined as 347 nM.

For the compound `CCn1c(=O)c2c(C)c(-c3ccoc3)sc2n(C)c1=O` [XLVI, 3-ethyl-6-(3-furyl)-1,5-dimethyl-1,3-dihydrothiopheno[2,3-d]pyrimidine-2,4-dione], affinity was put at a Ki of 546 nM.

`CCn1c(=O)n(CC(C)C)c(=O)c2c(C)c(-c3ccco3)sc21` [XLIV, 1-ethyl-6-(2-furyl)-5-methyl-3-(2-methylpropyl)-1,3-dihydrothiopheno[2,3-d]pyrimidine-2,4-dione] displayed a Ki of 457 nM.

The compound `CCn1c(=O)[nH]c2sc(C(=O)N[C@H](C)CO)c(C)c2c1=O` [XLII, N—((1R)-2-hydroxy-isopropyl)(3-ethyl-5-methyl-2,4-dioxo(1,3-dihydrothiopheno[2,3-d]pyrimidin-6-yl))carboxamide] came in with a Ki of 769 nM.

Compound `CCn1c(=O)c2c(C)c(-c3ccccn3)sc2n(C)c1=O` [L, 3-ethyl-1,5-dimethyl-6-(2-pyridyl)-1,3-dihydrothiopheno[2,3-d]pyrimidine-2,4-dione] displayed an inhibitory constant (Ki) of 485 nM.

`CCn1c(=O)[nH]c2sc(-c3cccs3)c(C)c2c1=O` [III, 3-ethyl-5-methyl-6-(2-thienyl)-1,3-dihydrothiopheno[2,3-d]pyrimidine-2,4-dione] registered an inhibitory constant (Ki) of 97 nM.

`CCn1c(=O)[nH]c2sc(C3=N[C@@H](C)CO3)c(C)c2c1=O` [XLIII, 6-((4S)-4-methyl(1,3-oxazolin-2-yl))-3-ethyl-5-methyl-1,3-dihydrothiopheno[2,3-d]pyrimidine-2,4-dione] had an inhibition constant Ki of 93 nM.

For `CCn1c(=O)[nH]c2scc(-c3ccc(C)o3)c2c1=O` [XXI, 3-ethyl-5-(5-methyl(2-furyl))-1,3-dihydrothiopheno[2,3-d]pyrimidine-2,4-dione], the Ki was found to be 230 nM.

The compound `Cc1c(C2=NCCO2)sc2[nH]c(=O)n(CC(C)C)c(=O)c12` [XXVIII, 5-methyl-3-(2-methylpropyl)-6-(1,3-oxazolin-2-yl)-1,3-dihydrothiopheno[2,3-d]pyrimidine-2,4-dione] yielded a Ki of 137 nM.
